Where “and” joins values, the source holds several entries; their conditions need not be identical. Equal entries are not always repeated. Where a SMILES comes first, the peptide text is derived from it. The star is where a group is joined. Cbz = O=C(OCc1ccccc1)*
Assays:
Assay in all cases: cells
SBC-1 = format: functional, cell-based, Homo sapiens;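 also: cell viability assay measuring growth inhibition of the SBC-1 cell line, IC50 being the concentration that halves growth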
Description: SANGER: Inhibition of human SBC-1 cell growth in a cell viability assay.

TE-8 = format: functional, cell-based, Homo sapiens;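 also: growth inhibition of TE-8 cells, measured with a cell viability readout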
Description: SANGER: Inhibition of human TE-8 cell growth in a cell viability assay.

KURAMOCHI = format: functional, cell-based, Homo sapiens;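 also: growth inhibition of KURAMOCHI cells, read out with a cell viability assay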
Description: SANGER: Inhibition of human KURAMOCHI cell growth in a cell viability assay.

SK-MEL-1 = format: functional, cell-based, Homo sapiens;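 also: growth inhibition of human SK-MEL-1 cells, read out by a cell viability assay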
Description: SANGER: Inhibition of human SK-MEL-1 cell growth in a cell viability assay.

RCC10RGB = format: functional, cell-based, Homo sapiens;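 also: growth inhibition of human RCC10RGB cells, read out by a cell viability assay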
Description: SANGER: Inhibition of human RCC10RGB cell growth in a cell viability assay.

COLO-800 = format: functional, cell-based, Homo sapiens;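 also: growth inhibition of COLO-800 cells, read out with a cell viability assay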
Description: SANGER: Inhibition of human COLO-800 cell growth in a cell viability assay.

NCI-H1838 = format: functional, cell-based, Homo sapiens;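 also: growth inhibition of NCI-H1838 cells, determined with a cell viability readout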
Description: SANGER: Inhibition of human NCI-H1838 cell growth in a cell viability assay.

Lu-65 = format: functional, cell-based, Homo sapiens;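 also: growth inhibition of Lu-65 cancer cells, read out by a cell viability assay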
Description: SANGER: Inhibition of human LU-65 cell growth in a cell viability assay.

LC-2-ad = format: functional, cell-based, Homo sapiens;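 also: growth inhibition of human LC-2-ad cells, read out with a cell viability assay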
Description: SANGER: Inhibition of human LC-2-ad cell growth in a cell viability assay.

DB = format: functional, cell-based, Homo sapiens
Description: SANGER: Inhibition of human DB cell growth in a cell viability assay.

NB5 = format: functional, cell-based, Homo sapiens;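 also: growth inhibition of NB5 cells, read out as cell viability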
Description: SANGER: Inhibition of human NB5 cell growth in a cell viability assay.

EW-16 = format: functional, cell-based, Homo sapiens;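 also: growth inhibition of human EW-16 cells, read out as cell viability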
Description: SANGER: Inhibition of human EW-16 cell growth in a cell viability assay.

MN-60 = format: functional, cell-based, Homo sapiens;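 also: growth inhibition of the MN-60 cell line, determined with a cell viability assay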
Description: SANGER: Inhibition of human MN-60 cell growth in a cell viability assay.

ALL-PO = format: functional, cell-based, Homo sapiens;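 also: growth inhibition of ALL-PO cells, read out by a cell viability assay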
Description: SANGER: Inhibition of human ALL-PO cell growth in a cell viability assay.

GT3TKB = format: functional, cell-based, Homo sapiens;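 also: growth inhibition of the cell line, read out with a cell viability assay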
Description: SANGER: Inhibition of human GT3TKB cell growth in a cell viability assay.

MOLT-16 = format: functional, cell-based, Homo sapiens;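 also: growth inhibition of human MOLT-16 cells, read out with a cell viability assay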
Description: SANGER: Inhibition of human MOLT-16 cell growth in a cell viability assay.

LXF-289 cell line = format: functional, cell-based; conditions: Homo sapiens
Description: SANGER: Inhibition of human LXF-289 cell growth in a cell viability assay.

NKM-1 = format: functional, cell-based, Homo sapiens;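 also: growth inhibition of NKM-1 cells, read out with a cell viability assay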
Description: SANGER: Inhibition of human NKM-1 cell growth in a cell viability assay.

GI-ME-N = format: functional, cell-based, Homo sapiens;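 also: growth inhibition of human GI-ME-N cells, read out with a cell viability assay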
Description: SANGER: Inhibition of human GI-ME-N cell growth in a cell viability assay.

COLO-829 = format: functional, cell-based, Homo sapiens
Description: SANGER: Inhibition of human COLO-829 cell growth in a cell viability assay.

CTB-1 = format: functional, cell-based, Homo sapiens
Description: SANGER: Inhibition of human CTB-1 cell growth in a cell viability assay.

KM-H2 = format: functional, cell-based, Homo sapiens;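 also: growth inhibition of KM-H2 cells, read out by a cell viability assay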
Description: SANGER: Inhibition of human KM-H2 cell growth in a cell viability assay.

HD-MY-Z = format: functional, cell-based, Homo sapiens;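 also: growth inhibition of HD-MY-Z cells, read out with a cell viability assay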
Description: SANGER: Inhibition of human HD-MY-Z cell growth in a cell viability assay.

RPMI-8226 = format: functional, cell-based, Homo sapiens
Description: SANGER: Inhibition of human RPMI-8226 cell growth in a cell viability assay.

NCI-H1581 = format: functional, cell-based, Homo sapiens;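 also: cell growth inhibition read out by a viability assay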
Description: SANGER: Inhibition of human NCI-H1581 cell growth in a cell viability assay.

SCH = format: functional, cell-based, Homo sapiens;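 also: growth inhibition of human SCH cells, read out in a cell viability assay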
Description: SANGER: Inhibition of human SCH cell growth in a cell viability assay.

TGW = format: functional, cell-based, Homo sapiens;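 also: growth inhibition of human TGW cells, read out with a cell viability assay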
Description: SANGER: Inhibition of human TGW cell growth in a cell viability assay.

HAL-01 = format: functional, cell-based, Homo sapiens;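 also: growth inhibition of human HAL-01 cells, read out with a cell viability assay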
Description: SANGER: Inhibition of human HAL-01 cell growth in a cell viability assay.

LAN-6 = format: functional, cell-based, Homo sapiens;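 also: growth inhibition of LAN-6 cells, determined with a cell viability assay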
Description: SANGER: Inhibition of human LAN-6 cell growth in a cell viability assay.

NCI-H1395 = format: functional, cell-based, Homo sapiens;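 also: cell viability assay read-out quantifying reduced proliferation of human NCI-H1395 cells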
Description: SANGER: Inhibition of human NCI-H1395 cell growth in a cell viability assay.

KALS-1 = format: functional, cell-based, Homo sapiens; conditions: read-out: IC50;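 also: growth inhibition of KALS-1 cells, determined with a cell viability assay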
Description: SANGER: Inhibition of human KALS-1 cell growth in a cell viability assay.

no-11 = format: functional, cell-based, Homo sapiens;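 also: growth inhibition of human NO-11 cells, read out with a cell viability assay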
Description: SANGER: Inhibition of human no-11 cell growth in a cell viability assay.

C8166 = format: functional, cell-based, Homo sapiens;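 also: growth inhibition of human C8166 cells measured by a cell viability assay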
Description: SANGER: Inhibition of human C8166 cell growth in a cell viability assay.

NCI-H23 = format: functional, cell-based, Homo sapiens;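 also: cell viability assay measuring growth inhibition of NCI-H23 cells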
Description: SANGER: Inhibition of human NCI-H23 cell growth in a cell viability assay.

NCI-H1648 = format: functional, cell-based, Homo sapiens;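 also: cell viability assay measuring inhibition of NCI-H1648 cell growth, from the Sanger screening data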
Description: SANGER: Inhibition of human NCI-H1648 cell growth in a cell viability assay.

IST-SL1 = format: functional, cell-based, Homo sapiens;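 also: growth inhibition of human IST-SL1 cells, read out with a cell viability assay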
Description: SANGER: Inhibition of human IST-SL1 cell growth in a cell viability assay.

NMC-G1 = format: functional, cell-based, Homo sapiens;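 also: growth inhibition of the NMC-G1 cell line, measured with a cell viability read-out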
Description: SANGER: Inhibition of human NMC-G1 cell growth in a cell viability assay.

RS4-11 = format: functional, cell-based, Homo sapiens;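 also: growth inhibition of RS4-11 cells, read out by a cell viability assay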
Description: SANGER: Inhibition of human RS4-11 cell growth in a cell viability assay.

ONS-76 = format: functional, cell-based, Homo sapiens;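 also: growth inhibition of human ONS-76 cells, read out with a cell viability assay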
Description: SANGER: Inhibition of human ONS-76 cell growth in a cell viability assay.

LNCaP-Clone-FGC = format: functional, cell-based, Homo sapiens
Description: SANGER: Inhibition of human LNCaP-Clone-FGC cell growth in a cell viability assay.

GOTO = format: functional, cell-based, Homo sapiens;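 also: growth inhibition of GOTO cells, read out by a cell viability assay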
Description: SANGER: Inhibition of human GOTO cell growth in a cell viability assay.

HEL = format: functional, cell-based, Homo sapiens;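 also: growth inhibition of HEL cells, read out with a cell viability assay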
Description: SANGER: Inhibition of human HEL cell growth in a cell viability assay.

ATN-1 = format: functional, cell-based, Homo sapiens;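 also: growth inhibition of human ATN-1 cells, read out with a cell viability assay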
Description: SANGER: Inhibition of human ATN-1 cell growth in a cell viability assay.

OVCAR-4 = format: functional, cell-based, Homo sapiens;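 also: growth inhibition of human OVCAR-4 cells, measured with a cell viability assay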
Description: SANGER: Inhibition of human OVCAR-4 cell growth in a cell viability assay.

KS-1 = format: functional, cell-based; conditions: Homo sapiens;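 also: growth inhibition of KS-1 cells, read out with a cell viability assay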
Description: SANGER: Inhibition of human KS-1 cell growth in a cell viability assay.

SK-UT-1 = format: functional, cell-based, Homo sapiens;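 also: growth inhibition of SK-UT-1 cells, measured by a cell viability assay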
Description: SANGER: Inhibition of human SK-UT-1 cell growth in a cell viability assay.

NCI-H69 = format: functional, cell-based, Homo sapiens;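 also: growth inhibition of the cell line, read out with a cell viability assay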
Description: SANGER: Inhibition of human NCI-H69 cell growth in a cell viability assay.

NB10 = format: functional, cell-based, Homo sapiens;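 also: growth inhibition of NB10 cells, read out by a cell viability assay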
Description: SANGER: Inhibition of human NB10 cell growth in a cell viability assay.

NCI-H1092 = format: functional, cell-based, Homo sapiens;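 also: cell growth inhibition measured with a cell viability assay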
Description: SANGER: Inhibition of human NCI-H1092 cell growth in a cell viability assay.

Compound: Nc1ccccc1NC(=O)c1ccc(CNC(=O)OCc2cccnc2)cc1 [ENTINOSTAT]
- IC50 (SBC-1; Homo sapiens, SBC-1): 1430 nM
- IC50 (TE-8; Homo sapiens, TE-8): 369 nM
- IC50 (KURAMOCHI; Homo sapiens, KURAMOCHI): 1770 nM
- IC50 (SK-MEL-1; Homo sapiens, SK-MEL-1): > 5000 nM
- IC50 (RCC10RGB; Homo sapiens, RCC10RGB): > 5000 nM
- IC50 (COLO-800; Homo sapiens, COLO-800): > 5000 nM
- IC50 (NCI-H1838; Homo sapiens, NCI-H1838): > 5000 nM
- IC50 (Lu-65; Homo sapiens, Lu-65): 4150 nM
- IC50 (LC-2-ad; Homo sapiens, LC-2-ad): 537 nM
- IC50 (DB; Homo sapiens, DB): 1700 nM
- IC50 (NB5; Homo sapiens, NB5): 1660 nM
- IC50 (EW-16; Homo sapiens, EW-16): 1930 nM
- IC50 (MN-60; Homo sapiens, MN-60): 4110 nM
- IC50 (ALL-PO; Homo sapiens, ALL-PO): 63.6 nM
- IC50 (GT3TKB; Homo sapiens, GT3TKB): 4330 nM
- IC50 (MOLT-16; Homo sapiens, MOLT-16): 410 nM
- IC50 (LXF-289 cell line): 959 nM
- IC50 (NKM-1; Homo sapiens, NKM-1): 109 nM
- IC50 (GI-ME-N; Homo sapiens, GI-ME-N): 4060 nM
- IC50 (COLO-829; Homo sapiens, COLO-829): 1540 nM
- IC50 (CTB-1; Homo sapiens, CTB-1): 3050 nM
- IC50 (KM-H2; Homo sapiens, KM-H2): 1570 nM
- IC50 (HD-MY-Z; Homo sapiens, HD-MY-Z): 1750 nM
- IC50 (RPMI-8226; Homo sapiens, RPMI-8226): 3140 nM
- IC50 (NCI-H1581; Homo sapiens, NCI-H1581): > 5000 nM
- IC50 (SCH; Homo sapiens, SCH): 403 nM
- IC50 (TGW; Homo sapiens, TGW): 1080 nM
- IC50 (HAL-01; Homo sapiens, HAL-01): 1170 nM
- IC50 (LAN-6; Homo sapiens, LAN-6): 2020 nM
- IC50 (NCI-H1395; Homo sapiens, NCI-H1395): > 5000 nM
- IC50 (KALS-1; Homo sapiens, KALS-1): 705 nM
- IC50 (no-11; Homo sapiens): > 5000 nM
- IC50 (C8166; Homo sapiens, C8166): > 5000 nM
- IC50 (NCI-H23; Homo sapiens, NCI-H23): > 5000 nM
- IC50 (NCI-H1648; Homo sapiens, NCI-H1648): > 5000 nM
- IC50 (IST-SL1; Homo sapiens, IST-SL1): 773 nM
- IC50 (NMC-G1; Homo sapiens, NMC-G1): 404 nM
- IC50 (RS4-11; Homo sapiens, RS4-11): > 5000 nM
- IC50 (ONS-76; Homo sapiens, ONS-76): 582 nM
- IC50 (LNCaP-Clone-FGC; Homo sapiens, LNCaP-Clone-FGC): > 5000 nM
- IC50 (GOTO; Homo sapiens, GOTO): 951 nM
- IC50 (HEL; Homo sapiens, HEL): 313 nM
- IC50 (ATN-1; Homo sapiens, ATN-1): 306 nM
- IC50 (OVCAR-4; Homo sapiens, OVCAR-4): 1130 nM
- IC50 (KS-1): 881 nM
- IC50 (SK-UT-1; Homo sapiens, SK-UT-1): 1790 nM
- IC50 (NCI-H69; Homo sapiens, NCI-H69): 801 nM
- IC50 (NB10; Homo sapiens, NB10): 2410 nM
- IC50 (NCI-H1092; Homo sapiens, NCI-H1092): 2050 nM

Compound: CC(C)C[C@@H](C=O)NC(=O)[C@H](CC(C)C)NC(=O)[C@H](CC(C)C)NC(=O)OCc1ccccc1 [MG-132] (Cbz-Leu-Leu-Leu-aldehyde)
- IC50 (SBC-1; Homo sapiens, SBC-1): > 1000 nM
- IC50 (SBC-1; sbc-1): > 1000 nM
- IC50 (TE-8; Homo sapiens, TE-8): 343 nM
- IC50 (TE-8; te-8): 270 nM
- IC50 (KURAMOCHI; kuramochi): > 1000 nM
- IC50 (SK-MEL-1; Homo sapiens, SK-MEL-1): > 1000 nM
- IC50 (SK-MEL-1; sk-mel-1): > 1000 nM
- IC50 (RCC10RGB; Homo sapiens, RCC10RGB): > 1000 nM
- IC50 (RCC10RGB; rcc10rgb): > 1000 nM
- IC50 (COLO-800; colo-800): > 1000 nM
- IC50 (NCI-H1838; nci-h1838): > 1000 nM
- IC50 (Lu-65; lu-65): > 1000 nM
- IC50 (LC-2-ad; Homo sapiens, LC-2-ad): > 1000 nM
- IC50 (LC-2-ad; lc-2-ad): > 1000 nM
- IC50 (DB; db): > 1000 nM
- IC50 (NB5; nb5): > 1000 nM
- IC50 (EW-16; ew-16): > 1000 nM
- IC50 (MN-60; Homo sapiens, MN-60): > 1000 nM
- IC50 (MN-60; mn-60): > 1000 nM
- IC50 (ALL-PO; all-po): > 1000 nM
- IC50 (GT3TKB; gt3tkb): > 1000 nM
- IC50 (MOLT-16; molt-16): 295 nM and > 1000 nM
- IC50 (NKM-1; nkm-1): > 1000 nM
- IC50 (GI-ME-N; gi-me-n): 193 nM and > 1000 nM
- IC50 (COLO-829; colo-829): 243 nM and > 1000 nM
- IC50 (CTB-1; ctb-1): 780 nM and > 1000 nM
- IC50 (KM-H2; Homo sapiens, KM-H2): > 1000 nM
- IC50 (KM-H2; km-h2): > 1000 nM
- IC50 (HD-MY-Z; hd-my-z): 233 nM and > 1000 nM
- IC50 (RPMI-8226; rpmi-8226): > 1000 nM and 423 nM
- IC50 (NCI-H1581; Homo sapiens, NCI-H1581): > 1000 nM
- IC50 (NCI-H1581; nci-h1581): > 1000 nM
- IC50 (SCH; sch): > 1000 nM
- IC50 (TGW; tgw): > 1000 nM
- IC50 (HAL-01; hal-01): > 1000 nM
- IC50 (LAN-6; lan-6): 313 nM and > 1000 nM
- IC50 (NCI-H1395; Homo sapiens, NCI-H1395): > 1000 nM
- IC50 (NCI-H1395; nci-h1395): > 1000 nM
- IC50 (KALS-1; kals-1): 466 nM and > 1000 nM
- IC50 (no-11): > 1000 nM
- IC50 (C8166; c8166): > 1000 nM
- IC50 (NCI-H23; nci-h23): > 1000 nM
- IC50 (NCI-H1648; Homo sapiens, NCI-H1648): > 1000 nM
- IC50 (NCI-H1648; nci-h1648): > 1000 nM
- IC50 (IST-SL1; ist-sl1): 201 nM and > 1000 nM
- IC50 (NMC-G1; nmc-g1): > 1000 nM
- IC50 (RS4-11; rs4-11): > 1000 nM and 956 nM
- IC50 (ONS-76; ons-76): 129 nM and 899 nM
- IC50 (LNCaP-Clone-FGC; Homo sapiens, LNCaP-Clone-FGC): > 1000 nM
- IC50 (LNCaP-Clone-FGC; lncap-clone-fgc): > 1000 nM
- IC50 (GOTO; Homo sapiens, GOTO): > 1000 nM
- IC50 (GOTO; goto): > 1000 nM
- IC50 (HEL; hel): 185 nM and > 1000 nM
- IC50 (ATN-1; atn-1): > 1000 nM
- IC50 (OVCAR-4; ovcar-4): 109 nM and > 1000 nM
- IC50 (SK-UT-1; sk-ut-1): 220 nM and > 1000 nM
- IC50 (NCI-H69; nci-h69): 151 nM and > 1000 nM
- IC50 (NB10; nb10): > 1000 nM
- IC50 (NCI-H1092; nci-h1092): 388 nM and > 1000 nM

— ChEMBL document CHEMBL1201861, “Genomics of Drug Sensitity in Cancer screening data, Wellcome Trust Sanger Institute”
